In data set [1] the test system is d-U937 cells. Nature of the data set: Cell viability: MTT assay in differentiated U937 cells. Type of data set: cell-based, human. The note with it: 10 μg/mL. The procedure: Differentiated U937 cells were pre-incubated with each test compound (final concentration 10 μg/mL in 200 μL media indicated below) under two protocols: the first for 4 h in 5% FCS RPMI1640 media and the second in 10% FCS RPMI1640 media for 24 h. The supernatant was replaced with new media (200 μL) and MTT stock solution (10 μL, 5 mg/mL) was added to each well. After incubation for 1 h the media were removed, DMSO (200 μL) was added to each well and the plates were shaken lightly for 1 h prior to reading the absorbance at 550 nm. The percentage loss of cell viability was calculated for each well relative to vehicle (0.5% DMSO) treatment. Consequently an apparent increase in cell viability for drug treatment relative to vehicle is tabulated as a negative percentage.
On the technique in general: Tetrazolium assays rely on reduction of a dye to a coloured formazan, in cell work by metabolically active cells.

Data set [2] deals with T1, p38 MAPKα isoform (MAPK14) (Homo sapiens, UniProt Q16539).
T1 construct: purchased Life Technologies
T1 sequence (Q16539 whole entry, canonical isoform): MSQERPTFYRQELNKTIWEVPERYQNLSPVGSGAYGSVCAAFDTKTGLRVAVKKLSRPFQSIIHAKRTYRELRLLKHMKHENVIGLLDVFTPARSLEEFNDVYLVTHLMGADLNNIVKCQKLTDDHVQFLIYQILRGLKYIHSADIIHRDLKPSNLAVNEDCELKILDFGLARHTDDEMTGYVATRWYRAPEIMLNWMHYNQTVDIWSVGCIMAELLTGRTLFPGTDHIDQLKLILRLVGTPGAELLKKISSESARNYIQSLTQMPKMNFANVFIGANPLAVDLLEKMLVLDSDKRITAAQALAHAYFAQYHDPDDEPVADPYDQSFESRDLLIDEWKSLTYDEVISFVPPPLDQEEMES
Nature of the data set: p38 MAPKα enzyme inhibition (Z-LYTE FRET). Format: biochemical. The settings on record: Table 2B, unit inferred; read-out: p38 MAPKα (Enzyme Profile). The method, boiled down: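 Activity was measured indirectly as phosphorylation of a MAPKAP-K2-derived FRET peptide. Enzyme (added at 40 ng/mL) was preincubated 2 h at RT with compound (added solutions 40–0.0012 μg/mL).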

Data set [3] has as its target T2, p38MAPKγ (MAPK12) (Homo sapiens, UniProt P53778).
T2 construct: purchased Life Technologies
T2 sequence (P53778 1-367): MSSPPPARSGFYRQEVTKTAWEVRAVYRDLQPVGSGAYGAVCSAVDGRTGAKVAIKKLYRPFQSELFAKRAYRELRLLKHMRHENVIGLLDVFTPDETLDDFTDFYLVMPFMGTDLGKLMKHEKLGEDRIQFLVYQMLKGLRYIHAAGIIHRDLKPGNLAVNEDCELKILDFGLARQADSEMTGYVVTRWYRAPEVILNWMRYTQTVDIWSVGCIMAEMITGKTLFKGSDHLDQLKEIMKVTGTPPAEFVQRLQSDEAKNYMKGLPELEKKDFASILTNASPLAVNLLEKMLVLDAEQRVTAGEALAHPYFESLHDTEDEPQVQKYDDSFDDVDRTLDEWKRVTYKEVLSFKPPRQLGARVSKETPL
Nature of the data set: p38 MAPKγ enzyme inhibition (Z-LYTE FRET). The note with it: Table 2B, unit inferred; read-out: p38 MAPKγ (Enzyme Profile). Format: biochemical. The method, boiled down: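 Enzyme (added at 800 ng/mL) was preincubated 2 h at RT with compound (solutions of 40 to 0.0012 μg/mL), then FRET peptide (8 μM) and ATP (400 μM), both as added, were reacted 1 h at RT. Protease development followed for 1 h; phosphorylation was read as the coumarin/fluorescein emission ratio.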

SMILES strings stand for the structures.

`COCC(=O)Nc1cc(Oc2ccc(NC(=O)Nc3cc(C(C)(C)C)nn3-c3ccc(C)cc3)c3ccccc23)ccn1` [Reference Compound, N-(4-(4-(3-(3-tert-butyl-1-p-tolyl-1H-pyrazol-5-yl)ureido)naphthalen-1-yloxy)pyridin-2-yl)-2-methoxyacetamide, reference compound]: the “MTT Assay Cell viability at time point indicated in d-U937 Cells, 4 h” value in data set [1] (4 h) is “− (−ve and +ve indicate the value is below and above, respectively, the no significant effect threshold defined as 30% inhibition at 10 μg/mL at the time point indicated)”. Moreover, the “MTT Assay Cell viability at time point indicated in d-U937 Cells, 24 h” value in data set [1] (24 h) was “+ (−ve and +ve indicate the value is below and above, respectively, the no significant effect threshold defined as 30% inhibition at 10 μg/mL at the time point indicated)”.
Take `Cc1ccc(-n2nc(C(C)(C)C)cc2NC(=O)Nc2ccc(OCc3ccnc(Nc4cnc(C(=O)NCCCO)cn4)c3)c3ccccc23)cc1` [Example 134, 5-((4-(((4-(3-(3-(tert-butyl)-1-(p-tolyl)-1H-pyrazol-5-yl)ureido)naphthalen-1-yl)oxy)methyl)pyridin-2-yl)amino)-N-(3-hydroxy-propyl)pyrazine-2-carboxamide]: the IC50 in data set [2] worked out at 3.8 nM; in data set [3], 35 nM.
For `CCCc1cncc(Nc2cc(COc3ccc(NC(=O)Nc4cc(C(C)(C)C)nn4-c4cccc(C)c4)c4ccccc34)ccn2)n1` [Example 201, 1-(3-(tert-butyl)-1-(m-tolyl)-1H-pyrazol-5-yl)-3-(4-((2-((6-propylpyrazin-2-yl)amino)pyridin-4-yl)methoxy)naphthalen-1-yl)urea] the same measures were 112 nM and 7900 nM.
In the case of `Cc1ncc(Nc2cc(COc3ccc(NC(=O)Nc4cc(C(C)(C)C)nn4-c4cccc(Cl)c4)c4ccccc34)ccn2)nc1C` [Example 179, 1-(3-(tert-butyl)-1-(3-chloro-phenyl)-1H-pyrazol-5-yl)-3-(4-((2-((5,6-dimethyl-pyrazin-2-yl)amino)pyridin-4-yl)methoxy)naphthalen-1-yl)urea], the IC50 in data set [2] was 46 nM; in data set [3], > 15500 nM.
For `CCc1cncc(Nc2cc(COc3ccc(NC(=O)Nc4cc(C(C)(C)C)nn4-c4ccc(COC)cc4)c4ccccc34)ccn2)n1` [Example 210, 1-(3-(tert-butyl)-1-(4-(methoxymethyl)phenyl)-1H-pyrazol-5-yl)-3-(4-((2-((6-ethylpyrazin-2-yl)amino)pyridin-4-yl)methoxy)naphthalen-1-yl)urea] the same measures were 28 nM and 509 nM.
In the same order, the values of `COC1CN(C(=O)c2cnc(Nc3cc(COc4ccc(NC(=O)Nc5cc(C(C)(C)C)nn5-c5cccc(C)c5)c5ccccc45)ccn3)cn2)C1` [Example 224, 1-(3-(tert-butyl)-1-(m-tolyl)-1H-pyrazol-5-yl)-3-(4-((2-((5-(3-methoxyazetidine-1-carbonyl)pyrazin-2-yl)amino)pyridin-4-yl)methoxy)naphthalen-1-yl)urea] are 54 nM and > 14000 nM.
Regarding `Cc1ccc(-n2nc(C(C)(C)C)cc2NC(=O)Nc2ccc(OCc3ccnc(Nc4cnc(C(=O)N5CC[C@@H](N(C)C)C5)cn4)c3)c3ccccc23)cc1` [Example 259, (R)-1-(3-(tert-butyl)-1-(p-tolyl)-1H-pyrazol-5-yl)-3-(4-((2-((5-(3-(dimethylamino)pyrrolidine-1-carbonyl)pyrazin-2-yl)amino)pyridin-4-yl)methoxy)naphthalen-1-yl)urea], the IC50 was determined as 1.2 nM in data set [2] and 146 nM in data set [3].
In the same order, the values of `Cc1ccc(-n2nc(C(C)(C)C)cc2NC(=O)Nc2ccc(OCc3ccnc(Nc4cnc(C(=O)N(C)CCCO)cn4)c3)c3ccccc23)cc1` [Example 223, 5-((4-(((4-(3-(3-(tert-butyl)-1-(p-tolyl)-1H-pyrazol-5-yl)ureido)naphthalen-1-yl)oxy)methyl)pyridin-2-yl)amino)-N-(3-hydroxypropyl)-N-methylpyrazine-2-carboxamide] are 11 nM and 103 nM.
Regarding `Cc1ccc(-n2nc(C(C)(C)C)cc2NC(=O)Nc2ccc(OCc3ccnc(Nc4cnc(C)c(C)n4)c3)c3ccccc23)cc1F` [Example 182, 1-(3-(tert-butyl)-1-(3-fluoro-4-methylphenyl)-1H-pyrazol-5-yl)-3-(4-((2-((5,6-dimethylpyrazin-2-yl)amino)pyridin-4-yl)methoxy)naphthalen-1-yl) urea], the IC50 in data set [2] is 44 nM; in data set [3], 1140 nM.
On to `COc1cccc(-n2nc(C(C)(C)C)cc2NC(=O)Nc2ccc(OCc3ccnc(Nc4cnc(C(=O)N5CCCC5)cn4)c3)c3ccccc23)c1` [Example 216, 1-(3-(tert-butyl)-1-(3-methoxyphenyl)-1H-pyrazol-5-yl)-3-(4-((2-((5-(pyrrolidine-1-carbonyl)pyrazin-2-yl)amino)pyridin-4-yl)methoxy)naphthalen-1-yl)urea], for which the IC50 came to 15 nM in data set [2] and 401 nM in data set [3].
On to `COC(C)(C)CNC(=O)c1cnc(Nc2cc(COc3ccc(NC(=O)Nc4cc(C(C)(C)C)nn4-c4ccc(C)cc4)c4ccccc34)ccn2)cn1` [Example 74], for which the IC50 is 43 nM in data set [2] and 482 nM in data set [3].
In the same order, the values of `Cc1ncc(Nc2cc(COc3ccc(NC(=O)Nc4cc(C(C)(C)C)nn4-c4cccc(F)c4)c4ccccc34)ccn2)nc1C` [Example 169, 1-(3-(tert-butyl)-1-(3-fluorophenyl)-1H-pyrazol-5-yl)-3-(4-((2-((5,6-dimethylpyrazin-2-yl)amino)pyridin-4-yl)methoxy)naphthalen-1-yl)urea] are 26 nM and 449 nM.
Consider `COc1ccc(-n2nc(C(C)(C)C)cc2NC(=O)Nc2ccc(OCc3ccnc(Nc4cnc(C(=O)N5CCCC5)cn4)c3)c3ccccc23)cc1F` [Example 228, 1-(3-(tert-butyl)-1-(3-fluoro-4-methoxyphenyl)-1H-pyrazol-5-yl)-3-(4-((2-((5-(pyrrolidine-1-carbonyl)pyrazin-2-yl)amino)pyridin-4-yl)methoxy)naphthalen-1-yl)urea], for which the IC50 in data set [2] is 35 nM; in data set [3], > 13700 nM.

Values taken from patent publication US11142515B2, “Pyrazolyl-ureas as kinase inhibitors” (RESPIVERT LIMITED, priority 2014, dated 2021).
